Results from patent US12123017B2, “Composition and method for cultivation, expansion, preservation and/or cell pretreatment” (REGENERO S.A., priority 2017, dated 2024).

Tested on: Umbilical cord derived mesenchymal stem cells
Experiment: Biopreservation of MSCs at 4° C. for three days (viability by trypan blue, adhesion, proliferation, migration)
Assay type: cell-based
Details: 0.1 μM in CBS, P<0.01
Protocol: Approximately 200,000 umbilical cord derived mesenchymal stem cells were stored in 200 μl of commercial biopreservation solution (CBS) as a control and 200 μl of CBS supplemented with the medium supplement of the invention. The samples were kept at 4° C. for three days. Cells were resuspended in DMEM base, and viability was assessed by trypan blue exclusion assay. […] Cell adhesion was evaluated 24 hours after cells were seeded in 10 mm plates. […] Finally, the cells preserved with CBS proliferated less than those preserved in CBS with pterostilbene (FIG. 4D). Therefore, the solution of the invention improves the functionality of the cells after 3 days of biopreservation.

## COc1cc(/C=C/c2ccc(O)cc2)cc(OC)c1 [Pterostilbene]
  cell viability better compared to CBS alone: approximately 10%
